# Reference: PubChem BioAssay (NCI)
#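 Exposure lasted 48 hours, with cells grown in 96-well plates and compounds tested at five concentrations. GI50 marks 50% less growth. TGI: concentration producing complete growth inhibition.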
# How the values were obtained:
# Assay in all cases: growth of human tumour cells (NCI), 48 h
# [1] = test system: EKVX NSCLC
# [2] = test system: HCT-116 colon
# [3] = test system: HCT-15 colon
# [4] = test system: NCI-H23 lung
# [5] = test system: OVCAR-8 ovarian
# [6] = test system: RPMI-8226 leukemia
# [7] = test system: SF-295 CNS
# [8] = test system: SN12C renal
# [9] = test system: SR leukemia
# [10] = test system: HOP-92 NSCLC
Compound,GI50 [1],TGI [1],GI50 [2],TGI [2],GI50 [3],TGI [3],GI50 [4],TGI [4],GI50 [5],TGI [5],GI50 [6],TGI [6],GI50 [7],TGI [7],GI50 [8],TGI [8],GI50 [9],TGI [9],GI50 [10],TGI [10]
CCCCCCCCN(CCCCCCCC)CCCCCCNc1cc(OC)cc2cccnc12,6.82 µM,24 µM,2.37 µM,6.49 µM,7.68 µM,24 µM,2.42 µM,6.2 µM,3.39 µM,12.4 µM,7.75 µM,75.4 µM,14 µM,29.3 µM,2.58 µM,6.9 µM,6.7 µM,59.1 µM,,
C=C(C)[C@@H]1CC[C@]2(C(=O)O)CC[C@]3(C)[C@H](CC[C@@H]4[C@@]5(C)C[C@@H](CC#Cc6ccc(C(F)(F)F)cc6)[C@H](O)C(C)(C)[C@@H]5CC[C@]43C)[C@@H]12,3.82 µM,> 100 µM,2.34 µM,> 100 µM,3.95 µM,> 100 µM,,,3.55 µM,> 100 µM,4.01 µM,> 100 µM,,,,,3.23 µM,> 100 µM,3.09 µM,13.8 µM
O=C1CCC2CC(C(=O)c3ccccc3)CCC2CN1 (centres undefined) (tested in a mixture with another compound),,> 100 µM,,> 100 µM,,> 100 µM,,> 100 µM,,> 100 µM,,> 100 µM,,> 100 µM,,> 100 µM,,> 100 µM,,
CCOC(=O)n1cc(C2=C(c3cn(C)c4ccccc34)COC2=O)c2ccccc21,0.177 µM,> 100 µM,0.0515 µM,16.8 µM,0.0382 µM,> 63 µM,0.436 µM,35.5 µM,0.312 µM,> 100 µM,0.143 µM,,0.0464 µM,11 µM,0.306 µM,> 100 µM,0.0449 µM,16.4 µM,,
CCOC(=O)C1C2CCC(C2)C1(CCl)C(=O)OCC (centres undefined),,,,> 100 µM,,> 100 µM,,> 100 µM,,> 100 µM,,> 100 µM,,> 100 µM,,> 100 µM,,> 100 µM,,> 100 µM
COC(=O)C(CC(C)C)NC(=O)NC12CC3CC(CC(F)(C3)C1)C2 (centres undefined),,> 100 µM,,> 100 µM,,,,> 100 µM,,> 100 µM,,> 100 µM,,,,,,,,> 100 µM
O=C(/C(=C\c1ccc([N+](=O)[O-])cc1)S(=O)Cc1ccc(F)cc1)c1ccc(F)cc1 (centres undefined),1.91 µM,4.54 µM,1.64 µM,3.07 µM,1.64 µM,4.43 µM,1.91 µM,4.1 µM,2.17 µM,5.34 µM,1.3 µM,4.28 µM,1.68 µM,3.72 µM,1.9 µM,3.99 µM,,,1.86 µM,3.98 µM
CCN(CC)CCOc1ccccc1/C=C/c1noc2ccccc12,,31.9 µM,,19.2 µM,,22.4 µM,,26.9 µM,,24.8 µM,,,,29.7 µM,,24.6 µM,,68 µM,,
O=C1c2ccccc2C(=O)N1CCN(CCN1C(=O)c2ccccc2C1=O)Cn1cccn1,,> 100 µM,,31.6 µM,,> 100 µM,,,,> 100 µM,,83.4 µM,,> 100 µM,,> 100 µM,,,,> 100 µM
CC[P+](C)(C)c1ccccc1,,> 100 µM,,,,> 100 µM,,> 100 µM,,> 100 µM,,> 100 µM,,> 100 µM,,> 100 µM,,,,
